Measurements from patent US10633420B2, “Antimicrobial peptides with wound healing activity” (priority 2016, dated 2020).
pEC50: −log10 of the molar value. Converted amounts (≈) assume the structure as drawn. Where two headings read alike, the source gives them in different places. No end group written: not given here.

Key:
[1] = test system: P. aeruginosa ATCC 9027; conditions: ATCC 9027, 3 h, pH 7.4
[2] = test system: Gram-negative P. aeruginosa and E. coli and the Gram-positive S. aureus
[3] = test system: adult human epidermal keratinocytes (HEKa) cells; test: MTT assay; assay type: cell-based; conditions: for Toxic effects on metabolically active HEKa cells (MTT): 12.5˜100 μg/ml
Description: MTT assay: The toxic effect of the peptides on adult human epidermal keratinocytes (HEKa) cells was evaluated using the MTT (3-(4,5-dimethylthiazolyl-2)-2,5-diphenyltetrazolium bromide) colorimetric method (Di Grazia et al., Antimicrob Agents Chemother 58:2520-2527, 2014). The color intensity of the MTT is directly proportional to the number of metabolically active cells. Keratinocytes were plated in triplicate wells of a 96-well plate, at 4×10^4 cells/well in EpiLife medium supplemented with HKGS. After overnight incubation at 37° C. in a 5% CO2 atmosphere, the plate was incubated with the peptides at different concentrations for 2 hours, and 0.5 mg/ml of MTT was added. After 4 hours of incubation, formazan crystals were dissolved by adding 100 μl of acidified isopropanol, and the absorbance of each well was measured at 570 nm using a microplate reader (PowerWave X; BioTek, Winooski, Vt.).

[4] = test system: P. aeruginosa PAO1 (pTDK-GFP)
[5] = test system: HEKa cells; test: In vitro scratch wound closure assay; assay type: cell-based, human; conditions: 10 μg/ml DRGN-1; 20 μM mitomycin C or 0.2 μM AG1478 pretreatment
Description: In vitro scratch wound closure assays: In vitro wound closure was assayed in confluent cell monolayers of HEKa (Invitrogen) as described elsewhere (Kim et al., Amino Acids 46:2333-2343, 2014). Cells were seeded in 6-well plates (Corning, N.Y., USA) and grown until they reached confluence (48 hours) in EpiLife medium supplemented with HKGS. Cells were starved for 18 hours in EpiLife without HKGS and then scratched once vertically with a 200-μl pipette tip to create an artificial wound. For inhibitor studies, mitomycin C (20 μM final) and AG1478 (0.2 μM final) were added 90 minutes and 10 minutes prior to scratch generation. After being washed twice with PBS to remove cellular debris, cells were treated with DRGN-1, VK25 or LL-37. PBS was used as a negative control. Cells were photographed before peptide treatment and 7 hours and 24 hours after peptide treatment using an EVOS® Cell Imaging Systems (Invitrogen). The same image fields were captured and the wound areas were estimated using ImageJ software (Schneider et al., Nat Methods 9:671-675, 2012).

[6] = test system: S. aureus SH1000 (pAH9-RFP); conditions: 3 hours, 10 mM sodium phosphate buffer pH 7.4
[7] = test system: sheep erythrocytes; test: Hemolytic activity; assay type: cell-based; conditions: high concentration
Description: FIG. 4 is a graph plotting hemolytic activity of CAMPs. A fresh sheep erythrocyte suspension was incubated with the indicated peptides. Hemoglobin release into the supernatant was measured by absorbance at 567 nm to indicate membrane damage of erythrocytes.

[8] = test system: S. aureus ATCC25923; conditions: ATCC25923, 3 h, pH 7.4
[9] = test system: F. novicida U112; conditions: 3 hours, 10 mM sodium phosphate buffer pH 7.4
[10] = test system: P. aeruginosa PAO1; conditions: PAO1, 3 h, pH 7.4
[11] = test system: E. coli O157:H7; conditions: 3 hours, 10 mM sodium phosphate buffer pH 7.4
[12] = test system: internalized P. aeruginosa ATCC 9027 in HEKa keratinocytes; test: P. aeruginosa-infected HEKa keratinocytes; assay type: cell-based, Pseudomonas aeruginosa; conditions: 30 μg/ml, 2 hours
Description: Cell infection: Adult human epidermal keratinocytes HEKa (Invitrogen, Carlsbad, Calif.) cells were seeded in 24-well plates (Corning) and grown until they reached confluence (48 h) in EpiLife medium (Thermo Scientific) supplemented with human keratinocyte growth supplements (HKGS) containing 0.2% v/v bovine pituitary extract, 5 μg/ml bovine insulin, 0.18 μg/ml hydrocortisone, 5 μg/ml bovine transferrin, and 0.2 ng/ml human epidermal growth factor (EGF) (Invitrogen). The bacterial strain P. aeruginosa ATCC 9027 was grown in brain heart infusion (BHI) media at 37° C. with mild shaking and then harvested by centrifugation. Bacterial suspension (MOI 10) in EpiLife medium was co-incubated with keratinocytes for 2 hours at 37° C. and 5% CO2. The medium was aspirated and the cells were washed three times with PBS to remove non-adherent bacteria. In order to kill extracellular bacteria, cells were incubated for 1 hour in EpiLife without HKGS supplemented with 100 μg/ml of gentamicin. The medium was then aspirated and the infected cells were washed three times, as described above. Three hundred microliters of peptide solution (30 μg/ml) in EpiLife without HKGS was added to each well and the plate was incubated for 2 hours at 37° C. and 5% CO2. […] The CFU were counted after 24 hours at 37° C.

[13] = test system: EGFR; test: Western blotting, EGFR phosphorylation; assay type: cell-based, human; conditions: 0.2 μM AG1478, 10 minutes preincubation
Description: FIGS. 8A-8F indicate transactivation of the EGFR-STAT pathway by DRGN-1. Subconfluent keratinocytes were starved for 2 hours in HGKS-free medium and then stimulated with 10 μg/ml DRGN-1. For EGFR inhibition, cells were preincubated with 0.2 μM AG1478 for 10 minutes and subsequently treated with 10 μg/ml DRGN-1. The cells were harvested into lysis buffer at the indicated times. The phosphorylation of EGFR (p-EGFR) and STAT3 (p-STAT3) was analyzed by Western blotting (FIGS. 8A, 8B, 8D, and 8E). EGFR indicates total EGFR protein. FIGS. 8C and 8F are graphs plotting densitometric analyses of the expression of phosphoprotein relative to unphosphorylated proteins (pEGFR/EGFR, FIG. 8C; pSTAT3/STAT3, FIG. 8F).
Western blotting: Semifluent HEKa cells were serum-starved for 3 hours and then stimulated with 10 μg/ml DRGN-1 or HKGS for 5-30 minutes at 37° C. AG1478 (0.2 μM final) was added 10 minutes prior to DRGN-1 or HKGS treatment. Cells were lysed with 2×Laemmli sample buffer (Bio-Rad; Hercules, Calif.) containing 5 mM sodium fluoride and 2 mM sodium vanadate. Cell lysates were separated on a 4-12% SDS-PAGE gel and transferred to polyvinylidene difluoride membrane using an iBlot system (Invitrogen). The membranes were probed with antibodies specific to phospho-EGFR and EGFR (Cell Signaling). […]

[14] = 3 hours, 10 mM sodium phosphate buffer pH 7.4

Row | Compound | EC50 [1] | pEC50 [2] | EC50, range over strains [2] | HEKa cell viability (MTT) ([3]; 50˜100 μg/ml) | EC50 ([4]; PAO1, 3 h, pH 7.4) | Effect on keratinocyte migration induced by DRGN-1 [5] | EC50 [6] | Toxicity against erythrocytes (hemolysis) [7] | EC50 [8] | EC50 [9] | EC50 [10] | Toxic effects on metabolically active HEKa cells (MTT) [3] | EC50 [11] | Killing of internalized bacteria [12] | EC50 [4, 14] | Effect on DRGN-1-induced EGFR phosphorylation [13]
1 | CC[C@H](C)[C@H](NC(=O)[C@H](CCCCN)NC(=O)[C@H](CCC(=O)O)NC(=O)[C@H](CCCCN)NC(=O)[C@H](CO)NC(=O)[C@H](CCCCN)NC(=O)[C@H](CCCNC(=N)N)NC(=O)[C@H](Cc1ccccc1)NC(=O)[C@H](Cc1ccccc1)NC(=O)[C@H](CC(=O)O)NC(=O)CNC(=O)[C@H](CC(C)C)NC(=O)[C@@H](N)CC(C)C)C(=O)NCC(=O)N[C@@H](CCCCN)C(=O)N[C@@H](CCC(=O)O)C(=O)N[C@@H](Cc1ccccc1)C(=O)N[C@@H](CCCCN)C(=O)N[C@@H](CCCNC(=N)N)C(=O)N[C@H](C(=O)N[C@H](C(=O)N[C@@H](CCC(N)=O)C(=O)N[C@@H](CCCNC(=N)N)C(=O)N[C@H](C(=O)N[C@@H](CCCCN)C(=O)N[C@@H](CC(=O)O)C(=O)N[C@@H](Cc1ccccc1)C(=O)N[C@@H](CC(C)C)C(=O)N[C@@H](CCCNC(=N)N)C(=O)N[C@@H](CC(N)=O)C(=O)N[C@@H](CC(C)C)C(=O)N[C@H](C(=O)N1CCC[C@H]1C(=O)N[C@@H](CCCNC(=N)N)C(=O)N[C@H](C(=O)N[C@@H](CCC(=O)O)C(=O)N[C@@H](CO)C(=O)O)[C@@H](C)O)C(C)C)[C@@H](C)CC)C(C)C)[C@@H](C)CC [LL-37, reference compound] | 1.08 µg/mL (≈ 0.24 µM) | 6.22 to 7.30 | 0.24 to 2.7 µg/mL | significant decrease | 2.69 µg/mL (≈ 0.599 µM) | – | – | – | – | – | – | – | – | – | – | –
2 | CO[C@@]12[C@H](COC(N)=O)C3=C(C(=O)C(C)=C(N)C3=O)N1C[C@@H]1N[C@@H]12 [mitomycin C] | – | – | – | – | – | strongly inhibited | – | – | – | – | – | – | – | – | – | –
3 | PSKKTKPVKPKKVA [DRGN-1, PSKKTKPVKPKKVA] | 4.39 µg/mL | 5.34 to 6.30 | 0.77 to 7.1 µg/mL | – | – | – | 0.77 µg/mL | did not show any toxicity | 4.04 µg/mL | >100 µg/mL | 6.85 µg/mL | devoid of toxic effects | 3.48 µg/mL | 36% | 7.10 µg/mL | –
4 | SPKKTKPVKPKKVA [VK25, SPKKTKPVKPKKVA] | >100 µg/mL | – | > 100 µg/mL | – | – | – | >100 µg/mL | – | >100 µg/mL | >100 µg/mL | >100 µg/mL | devoid of toxic effects | >100 µg/mL | – | >100 µg/mL | –
5 | COc1cc2ncnc(Nc3cccc(Cl)c3)c2cc1OC [AG1478] | – | – | – | – | – | prevented cell migration | – | – | – | – | – | – | – | – | – | not observed in AG1478-treated cells
